Legend:
[1] = Metabolic stability in mouse plasma; assay type: in vitro ADME; conditions: for Metabolic stability, Plasma (% remaining): mouse plasma, 10 μM
Experimental: The metabolic stability was evaluated using mouse plasma and mouse liver microsomes.

[2] = Phase I metabolic stability in mouse liver microsomes (NADPH); assay type: in vitro ADME; conditions: 10 μM
Experimental: (§1) Phase I and phase II metabolic stability assay for was conducted in mouse liver microsomes. For phase I metabolism, the reaction was carried out with 100 mM potassium phosphate buffer, pH 7.4, in the presence of NADPH regenerating system (1.3 mM NADPH, 3.3 mM glucose 6-phosphate, 3.3 mM MgCl2, 0.4 U/mL glucose-6-phosphate dehydrogenase, 50 μM sodium citrate). Reactions in duplicate were initiated by addition of the liver microsomes to the incubation mixture (compound final concentration was 10 μM; 0.5 mg/mL microsomes). For phase II glucuronidation reaction compound was added to TRIS-HCl buffer (50 mM, pH 7.5) with microsomes (0.5 mg/mL), along with MgCl2 (8 mM), and alamethicin (25 μg/mL) and pre-incubated at 37° C. The reaction was initiated (in duplicate) with UDPGA at a final concentration of 2 mM. Negative controls in the absence NADPH and UDPGA were carried for both phase I and phase II metabolism respectively, to determine the specific cofactor free degradation. […] At predetermined times (0, 15, 30 and 60 min) aliquots of the mixture were removed and the reaction quenched by addition of two times the volume of ice cold acetonitrile spiked with the internal standard. Compound disappearance was monitored over time using a liquid chromatography and tandem mass spectrometry (LC/MS/MS) method.
(§2) Compounds were separated on an Agilent 1290 UPLC system with a c18 column using a gradient run of 55:45-5:95 water:acetonitrile over 3.2 minutes and detected on an Agilent 6520 QTOF mass spectrometer.

[3] = Phase II (glucuronidation, UDPGA) metabolic stability in mouse liver microsomes; assay type: in vitro ADME
Experimental: as §1, §2

[4] = Negative control: mouse liver microsomes without cofactors; assay type: in vitro ADME; conditions: for Metabolic stability, Negative Control (% remaining): microsomes without cofactors
Experimental: as §1, §2

[5] = Plasma pharmacokinetics in mice, 10 mg/kg i.v. and p.o.
Experimental: (§3) Plasma was harvested from blood by centrifugation. Additionally at two selected time points (i.e. 30 min and 2 h) brains were collected following both oral and IV dosing. Samples were extracted from plasma by a single one-step protein precipitation method (as described in bioanalysis section below). For brain tissue, whole brains were weighed and homogenized in two times the volume of acetonitrile, followed by vortexing and centrifugation. Once extracted, the samples were analyzed via LC/MS/MS (as described in bioanalysis section below). Non-compartmental-analysis module in WinNonlin™ (version 5.3) was used to assess pharmacokinetic parameters including maximal concentration (Cmax), time to Cmax (Tmax), area under the curve (AUClast), area extrapolated to infinity (AUC0-∞), terminal disposition rate constant (ke), and terminal half-life (t½).
(§4) Briefly, plasma samples were thawed on ice prior to extraction. Samples (50 μL) were extracted in 300 μL acetonitrile containing 1000 nM losartan as internal standard. For brain, 50 μL of the supernatant from homogenized tissue was extracted with 100 μL acetonitrile containing 1000 nM losartan as internal standard. Extracts were centrifuged at 16000×g at 4° C. for 10 minutes. Supernatants were transferred to a new siliconized tube and dried under N2 at 45° C. for 30 min. Samples were reconstituted with 100 μL of 30% acetonitrile, vortexed and centrifuged. Supernatants (95 μL) were transferred to a 250 μL polypropylene autosampler vials sealed with a Teflon cap and a volume of 10 μL was injected onto the ultra-performance liquid chromatography (UPLC) instrument for quantitative analysis using a temperature-controlled autosampler operating at 10° C.
(§5) The instrument was controlled by the Xcalibur software 2.3 (Thermo Scientific). Samples were introduced to the interface through Turbo Ion Spray with the temperature setting at 350° C.
(§6) Chromatographic analysis was performed using an Accela™ ultra high-performance system consisting of an analytical pump, and an autosampler coupled with TSQ Vantage mass spectrometer (Thermo Fisher Scientific Inc., Waltham Mass.).

[6] = Brain concentrations in mice after IV and PO dosing at 10 mg/kg; conditions: for concentration at 0.5 h / concentration at 2 h: male, CD1, mouse, in vivo, 10 mg/kg
Experimental: as §3, §4, §5, §6

Swiss Webster mice = assay: Mouse locomotor activity test; conditions: up to 30 mg/kg, versus cocaine
[7] = male, CD1, mouse, in vivo, iv, 10 mg/kg
[8] = male, CD1, mouse, in vivo, po, 10 mg/kg

With `Fc1ccc(C(SCCNCCCc2ccccc2)c2ccc(F)cc2)cc1` [Compound 4g, N-(2-((bis(4-fluorophenyl)methyl)thio)ethyl)-3-phenylpropan-1-amine] the “Metabolic stability, Plasma (% remaining)” value ([1]; 0 min) was 100%, the “Metabolic stability, Plasma (% remaining)” value ([1]; 15 min) was 100% and the “Metabolic stability, Plasma (% remaining)” value ([1]; 30 min) was 99%. The “Metabolic stability, Plasma (% remaining)” value ([1]; 60 min) was 103%, the “stability in mouse plasma” value ([1]; over a period of 60 minutes) was “stable” and the “Metabolic stability, Phase I (% remaining)” value ([2]; 0 min) was 100%. For the same compound, the “Metabolic stability, Phase I (% remaining)” value ([2]; 30 min) was 95%, the “Metabolic stability, Phase I (% remaining)” value ([2]; 60 min) was 77% and the “Metabolic stability, Phase II (% remaining)” value ([3]; 0 min) was 100%. The “Metabolic stability, Phase II (% remaining)” value ([3]; 15 min) was 90%, the “Metabolic stability, Phase II (% remaining)” value ([3]; 30 min) was 77% and the “Metabolic stability, Phase II (% remaining)” value ([3]; 60 min) was 50%. The “Metabolic stability, Negative Control (% remaining)” value ([4]; 0 min) was 100%, the “Metabolic stability, Negative Control (% remaining)” value ([4]; 15 min) was 104% and the “Metabolic stability, Negative Control (% remaining)” value ([4]; 30 min) was 97%. The “Metabolic stability, Negative Control (% remaining)” value ([4]; 60 min) was 119%, the “metabolism in microsomes without the cofactors” value ([4]; mouse liver microsomes, no NADPH/UDPGA) was “No metabolism was observed” and the bioavailability ([5]; male, CD1, mouse, in vivo, 10 mg/kg, F % (absolute bioavailability), mouse, 10 mg/kg P.O. versus I.V.) was roughly 10%. It also gave an AUC(0-inf) [5, 7] of 2040 µg·h/mL, an AUC(0-t) [5, 7] of 1.96 µg·h/mL and a Tmax [5, 7] of 4.8 min. It also gave an AUC(0-inf) [5, 8] of 203 µg·h/mL, an AUC(0-t) [5, 8] of 0.155 µg·h/mL and a Tmax [5, 8] of 30 min. For the same compound, the Ke ([5]; mouse plasma, 10 mg/kg I.V.) was 0.6952, the concentration at 0.5 h ([6]; iv) was 4780 ng/g and the concentration at 2 h ([6]; iv) was 14100 ng/g. The concentration at 0.5 h ([6]; po) was 369 ng/g, the concentration at 2 h ([6]; po) was 223 ng/g and the brain penetrability ([6]; mouse, following both p.o. and i.v. dosing) was “excellent brain penetrability”. For the same compound, the “locomotor stimulation (ambulatory distance)” value (Swiss Webster mice) was “does not produce locomotor stimulation”.

From patent publication US9862679B2, “Potent and selective inhibitors of monoamine transporters; method of making; and use thereof” (priority 2013, dated 2018)
